Common to all, as to type: cell-based
One experiment concerns Bacterial Spores. Put plainly: Sporicidal test against conventional compositions (Table 22). Particulars: H2O2 35% pH 3.32, KK 2.0 wt-% (250 ppm POOA) pH 1.85, mixed peracid 1.5 wt-% (750 ppm peracid) pH 3.06, peroxyacetic 4.5 wt-% (2610 ppm POAA) pH 2.61. The method, then:
(§1) Antimicrobial activity was determined according to two well established methods. The first method was the procedure set out in Germicidal and Detergent Sanitizing Action of Disinfectants, Official Methods of Analysis of the Association of Official Analytical Chemists, paragraph 960.09 and applicable sections, 15th Edition, 1990 (EPA Guideline 91-2). The second method was the procedure described in A.O.A.C. Use Dilution Methods, Official Methods of Analysis of the Association of Official Analytical Chemists, paragraph 955.14 and applicable sections, 15th Edition, 1990 (EPA Guideline 91-2). Briefly, antimicrobial activity of the present compositions was determined by exposing a one mL aliquot containing the target microorganism to 99 mL of the desired concentration of the test substance at the desired temperature. After the specified contact time, one mL of the test solution containing the microorganism was neutralized and enumerated for survivors.

Another experiment concerns E. coli. Description: Germicidal and detergent sanitizing action suspension test (AOAC 960.09). The conditions noted are these: Escherichia coli, 0.5 min; for log reduction at 5 ppm / log reduction at 10 ppm: 30 Second Exposure at Room Temperature; for log reduction at 20 ppm / log reduction at 40 ppm / log reduction at 60 ppm: 30 seconds. The protocol: as §1
(§2) Antimicrobial activity was determined as described above in Example 4.
(§3) Test 1 included 5 min exposure of the microbe to composition AB at room temperature. The microbes in test 1 included E. aerogenes ATCC 13048 and S. aureus ATCC 6538. Test 2 included 30 sec exposure of the microbe to composition AB at room temperature. The microbes in test 2 included S. aureus ATCC 6538, E. coli ATCC 11229, and P. aeruginosa ATCC 13442.

The subject of another experiment is S. aureus. Described as above. Particulars: Staphylococcus aureus, 0.5 min. The method, then:
as §1, §2, §3

Setting [1] is: Soft water pH 3.91, Post Test pH 4.01.

Read-outs that look alike come from different tables or passages of the source. Where only a bound is given, the exact number is not on record here.

As to `OO` [Composition H2O2, hydrogen peroxide], the “Log Reduction” value is reported as 1.19 log in the experiment with Bacterial Spores (40 °C, 30 sec); 2.94 log with Bacterial Spores (40 °C, 60 sec); above 6.30 log with Bacterial Spores (40 °C, 120 sec); 1.59 log with Bacterial Spores (60 °C, 10 sec); 4.85 log in the experiment on Bacterial Spores (60 °C, 20 sec); 4.89 log in the experiment on Bacterial Spores (60 °C, 30 sec). Besides, the “Log Reduction” value in the experiment with Bacterial Spores (80 °C, 10 sec) is on record as above 6.30 log; with Bacterial Spores (80 °C, 20 sec), above 6.30 log; in the experiment on Bacterial Spores (80 °C, 30 sec), above 6.30 log.
With `CCCCCCCC(=O)OO` [Pure POOA Crystals, peroxyoctanoic acid], the log reduction at 5 ppm with E. coli (Milli-Q water pH 4.04, Post Test pH 4.09) was determined as 1.34; in the experiment with E. coli (Milli-Q water pH 5.00, Post Test pH 5.03), 0.07; in the experiment on E. coli (Milli-Q water pH 5.98, Post Test pH 5.89) it was 0.11; with E. coli (Milli-Q water pH 6.60, Post Test pH 6.24), 0.09; with E. coli (setting [1]), 1.26; in the experiment on E. coli (Soft water pH 5.08* (pH drift of ~0.7 pH units), Post Test pH 5.79) it was 0.09. The log reduction at 5 ppm in the experiment with E. coli (Soft water pH 5.91* (pH drift of ~0.7 pH units), Post Test pH 6.68) stood at 0.08; with E. coli (Soft water pH 9.29, Post Test pH 9.12), 0.07; with S. aureus (5 ppm, Milli-Q water pH 4.04, Post Test pH 4.09, 30 Second Exposure at Room Temperature, read-out: Log Reduction of S. aureus), 6.28; in the experiment on S. aureus (5 ppm, Milli-Q water pH 5.00, Post Test pH 5.03, 30 Second Exposure at Room Temperature, read-out: Log Reduction of S. aureus), 5.01; with S. aureus (5 ppm, Milli-Q water pH 5.98, Post Test pH 5.89, 30 Second Exposure at Room Temperature, read-out: Log Reduction of S. aureus), 4.44; with S. aureus (5 ppm, Milli-Q water pH 6.60, Post Test pH 6.24, 30 Second Exposure at Room Temperature, read-out: Log Reduction of S. aureus), 6.04. The log reduction at 5 ppm with S. aureus (5 ppm, Soft water pH 3.91, Post Test pH 4.01, 30 Second Exposure at Room Temperature, read-out: Log Reduction of S. aureus) was found to be 5.82; in the experiment with S. aureus (5 ppm, Soft water pH 5.08* (pH drift of ~0.7 pH units), Post Test pH 5.79, 30 Second Exposure at Room Temperature, read-out: Log Reduction of S. aureus) it was 5.16; in the experiment on S. aureus (5 ppm, Soft water pH 5.91* (pH drift of ~0.7 pH units), Post Test pH 6.68, 30 Second Exposure at Room Temperature, read-out: Log Reduction of S. aureus), 4.19; in the experiment with S. aureus (5 ppm, Soft water pH 9.29, Post Test pH 9.12, 30 Second Exposure at Room Temperature, read-out: Log Reduction of S. aureus) it was 0.1; in the experiment on S. aureus (concentration of 5 ppm, pH of ~5, 30 sec, RT, read-out: log reductions of Staphylococcus aureus), 5. Moreover, the log reduction at 10 ppm came out at 6.04 with E. coli (Milli-Q water pH 4.04, Post Test pH 4.08); 0.07 in the experiment on E. coli (Milli-Q water pH 5.00, Post Test pH 4.98); 0.1 with E. coli (Milli-Q water pH 5.98, Post Test pH 5.90); 0.06 in the experiment with E. coli (Milli-Q water pH 6.60, Post Test pH 5.80); 6.34 in the experiment on E. coli (setting [1]); 0.55 with E. coli (Soft water pH 5.08, Post Test pH 5.67). Also, the log reduction at 10 ppm in the experiment on E. coli (Soft water pH 5.91, Post Test pH 6.68) was 0.24; with E. coli (Soft water pH 9.29, Post Test pH 9.09), 0.07; in the experiment with S. aureus (Milli-Q water pH 4.04, Post Test pH 4.08, 30 Second Exposure at Room Temperature), above 6.82; in the experiment with S. aureus (Milli-Q water pH 5.00, Post Test pH 4.98, 30 Second Exposure at Room Temperature) it was above 6.82; in the experiment on S. aureus (Milli-Q water pH 5.98, Post Test pH 5.90, 30 Second Exposure at Room Temperature) it was 6.52; in the experiment on S. aureus (Milli-Q water pH 6.60, Post Test pH 5.80, 30 Second Exposure at Room Temperature), above 6.82. The log reduction at 10 ppm is 6.28 with S. aureus (Soft water pH 3.91, Post Test pH 4.01, 30 Second Exposure at Room Temperature); 6.12 in the experiment with S. aureus (Soft water pH 5.08, Post Test pH 5.67, 30 Second Exposure at Room Temperature); above 6.82 in the experiment with S. aureus (Soft water pH 5.91, Post Test pH 6.68, 30 Second Exposure at Room Temperature); 0.26 with S. aureus (Soft water pH 9.29, Post Test pH 9.09, 30 Second Exposure at Room Temperature). Also, the log reduction at 20 ppm is 0.62 in the experiment with E. coli (20 ppm, 500 ppm Synthetic Hard Water, pH 7.77, pH 7.68) and 0.55 with E. coli (pH 5.58, 20 ppm, Milli-Q water, pH 5.58). In addition, the log reduction at 40 ppm in the experiment with E. coli (40 ppm, 500 ppm Synthetic Hard Water, pH 7.77, pH 7.61) was found to be 0.93; in the experiment with E. coli (pH 5.28, 40 ppm, Milli-Q water, pH 5.28), 2.61. Further, the log reduction at 60 ppm in the experiment on E. coli (60 ppm, 500 ppm Synthetic Hard Water, pH 7.77, pH 7.54) worked out at 1.12; in the experiment with E. coli (pH 5.08, 60 ppm, Milli-Q water, pH 5.08), 4.68.
